Patent US9884818B2, “Sulphamoylpyrrolamide derivatives and the use thereof as medicaments for the treatment of hepatitis B” (Janssen Sciences Ireland UC, priority 2013, dated 2018)

How the values were obtained:
HBV [1] = assay: Anti-HBV activity, HepG2.2.15 stable transfected cell line, HBV DNA from secreted virions by realtime PCR; assay type: cell-based; conditions: Hepatitis B virus, HepG2.2.15, 144 h, HepG2.2.15 cells, 6 days of treatment, HBV DNA from secreted virions; read-out: HepG2 2.15 EC50
HBV [2] = assay: Anti-HBV activity, HepG2.117 inducibly HBV producing cell line (Tet-off), intracellular HBV DNA by realtime PCR; assay type: cell-based; conditions: Hepatitis B virus, HepG2.117, 72 h, HepG2.117 cells, 3 days of treatment, intracellular HBV DNA; read-out: HepG2 117 EC50
[3] = Cytotoxicity in HepG2 cells, Resazurin viability assay; conditions: human, HepG2 cells, HepG2 4 days CC50 (μM), incubated for 4 days, Resazurin assay

Structure (SMILES): CC[C@@H](NS(=O)(=O)c1cc(C(=O)Nc2ccc(F)c(Cl)c2F)n(C)c1)C(F)(F)F [Compound 265, N-(3-chloro-2,4-difluoro-phenyl)-1-methyl-4-{[(1R)-1-(trifluoro-methyl)propyl]sulfamoyl}-1H-pyrrole-2-carboxamide]
- EC50 (HBV [1]): 10 nM
- EC50 (HBV [2]): 30 nM
- CC50 at 4 days [3]: > 25 µM

Structure (SMILES): C[C@@H](NS(=O)(=O)c1cn(C)c(C(=O)Nc2ccc(F)c(C(F)F)c2F)c1F)C(F)(F)F [Compound 287, N-[3-(difluoromethyl)-2,4-difluoro-phenyl]-3-fluoro-1-methyl-4-[[(1R)-2,2,2-trifluoro-1-methyl-ethyl]sulfamoyl]pyrrole-2-carboxamide]
- EC50 (HBV [1]): 4 nM
- EC50 (HBV [2]): 5 nM
- CC50 at 4 days [3]: > 25 µM

Structure (SMILES): CC[C@@H](C)NS(=O)(=O)c1cc(C(=O)Nc2ccc(F)c(C)c2)n(C)c1 [Compound 6, N-(4-fluoro-3-methyl-phenyl)-1-methyl-4-[[(1R)-1-methylpropyl]-sulfamoyl]pyrrole-2-carboxamide]
- EC50 (HBV [1]): 20 nM
- EC50 (HBV [2]): 20 nM
- CC50 at 4 days [3]: > 25 µM

Structure (SMILES): C[C@@H](NS(=O)(=O)c1cn(C)c(C(=O)Nc2ccc(F)c(F)c2)c1Cl)C(F)(F)F [Compound 217, 3-Chloro-N-(3,4-difluorophenyl)-1-methyl-4-{[(1R)-2,2,2-trifluoro-1-methylethyl]sulfamoyl}-1H-pyrrole-2-carboxamide]
- EC50 (HBV [1]): 5 nM
- EC50 (HBV [2]): 5 nM
- CC50 at 4 days [3]: > 25 µM

Structure (SMILES): Cc1c(S(=O)(=O)N[C@H](C)C(F)(F)F)cn(C)c1C(=O)Nc1ccc(F)c(Cl)c1 [Compound 145, N-(3-Chloro-4-fluorophenyl)-1,3-dimethyl-4-{[(1R)-2,2,2-trifluoro-1-methylethyl]sulfamoyl}-1H-pyrrole-2-carboxamide]
- EC50 (HBV [1]): 40 nM
- EC50 (HBV [2]): 30 nM
- CC50 at 4 days [3]: > 25 µM

Structure (SMILES): Cc1cc(NC(=O)c2cc(S(=O)(=O)NC3(C)COC3)cn2C)cc(F)c1F [Compound 35, N-(3,4-difluoro-5-methyl-phenyl)-1-methyl-4-[(3-methyloxetan-3-yl)-sulfamoyl]pyrrole-2-carboxamide]
- EC50 (HBV [1]): 30 nM
- EC50 (HBV [2]): 20 nM
- CC50 at 4 days [3]: > 25 µM

Structure (SMILES): C[C@@H](NS(=O)(=O)c1cc(C(=O)Nc2ccc(F)c(C(F)(F)F)c2)n(C)c1)C(F)(F)F [Compound 125, N-[4-Fluoro-3-(trifluoromethyl)phenyl]-1-methyl-4-{[(1R)-2,2,2-trifluoro-1-methylethyl]sulfamoyl}-1H-pyrrole-2-carboxamide]
- EC50 (HBV [1]): 190 nM
- EC50 (HBV [2]): 80 nM
- CC50 at 4 days [3]: 16.7 µM

Structure (SMILES): Cn1cc(S(=O)(=O)NC2(C(F)(F)F)CC2)cc1C(=O)Nc1ccc(F)c(C#N)c1 [Compound 227, N-(3-Cyano-4-fluorophenyl)-1-methyl-4-{[1-(trifluoromethyl)cyclopropyl]sulfamoyl}-1H-pyrrole-2-carboxamide]
- EC50 (HBV [1]): 20 nM
- EC50 (HBV [2]): 40 nM
- CC50 at 4 days [3]: > 25 µM

Structure (SMILES): Cn1cc(S(=O)(=O)NC2(C(F)(F)F)CCC2)c(Cl)c1C(=O)Nc1ccc(F)c(Cl)c1 [Compound 268, 3-chloro-N-(3-chloro-4-fluoro-phenyl)-1-methyl-4-{[1-(trifluoro-methyl)cyclobutyl]sulfamoyl}-1H-pyrrole-2-carboxamide]
- EC50 (HBV [1]): 5 nM
- EC50 (HBV [2]): 6 nM
- CC50 at 4 days [3]: > 25 µM

Structure (SMILES): Cc1cc(NC(=O)c2cc(S(=O)(=O)NC3(CC#N)COC3)cn2C)ccc1F [Compound 17, 4-[[3-(cyanomethyl)oxetan-3-yl]sulfamoyl]-N-(4-fluoro-3-methyl-phenyl)-1-methyl-pyrrole-2-carboxamide]
- EC50 (HBV [1]): 30 nM
- EC50 (HBV [2]): 20 nM
- CC50 at 4 days [3]: > 25 µM

Structure (SMILES): C[C@@H](NS(=O)(=O)c1cc(C(=O)Nc2ccc(F)c(F)c2)n(C)c1)C(F)(F)F [Compound 92, N-(3,4-Difluorophenyl)-1-methyl-4-{[(1R)-2,2,2-trifluoro-1-methylethyl]-sulfamoyl}-1H-pyrrole-2-carboxamide]
- EC50 (HBV [1]): 40 nM
- EC50 (HBV [2]): 30 nM
- CC50 at 4 days [3]: > 25 µM

Structure (SMILES): Cn1cc(S(=O)(=O)NC(C)(C)C(F)(F)F)cc1C(=O)Nc1ccc(F)c(F)c1 [Compound 95, N-(3,4-Difluorophenyl)-1-methyl-4-[(2,2,2-trifluoro-1,1-dimethylethyl)-sulfamoyl]-1H-pyrrole-2-carboxamide]
- EC50 (HBV [1]): 130 nM
- EC50 (HBV [2]): 60 nM
- CC50 at 4 days [3]: > 25 µM

Structure (SMILES): CC[C@@H](C)NS(=O)(=O)c1cc(C(=O)Nc2cc(C)c(F)c(F)c2)n(C)c1 [Compound 34, N-(3,4-difluoro-5-methyl-phenyl)-1-methyl-4-[[(1R)-1-methylpropyl]-sulfamoyl]pyrrole-2-carboxamide]
- EC50 (HBV [1]): 30 nM
- EC50 (HBV [2]): < 20 nM
- CC50 at 4 days [3]: > 25 µM

Structure (SMILES): Cc1cc(NC(=O)c2cc(S(=O)(=O)NC3(C)COC3)cn2C)ccc1Cl [Compound 77, N-(4-Chloro-3-methylphenyl)-1-methyl-4-[(3-methyloxetan-3-yl)sulfamoyl]-1H-pyrrole-2-carboxamide]
- EC50 (HBV [1]): 70 nM
- EC50 (HBV [2]): 180 nM
- CC50 at 4 days [3]: > 25 µM

Structure (SMILES): C[C@@H](NS(=O)(=O)c1cn(C)c(C(=O)Nc2ccc(F)c(C#N)c2)c1C#N)C(F)(F)F [Compound 293, 3-cyano-N-(3-cyano-4-fluoro-phenyl)-1-methyl-4-[[(1R)-2,2,2-trifluoro-1-methyl-ethyl]sulfamoyl]pyrrole-2-carboxamide]
- EC50 (HBV [1]): 20 nM
- EC50 (HBV [2]): 50 nM
- CC50 at 4 days [3]: > 25 µM

Structure (SMILES): Cc1cc(NC(=O)c2cc(S(=O)(=O)N[C@H]3C[C@@H](O)C3)cn2C)ccc1F [Compound 15, N-(4-fluoro-3-methyl-phenyl)-4-[(3-hydroxycyclobutyl)sulfamoyl]-1-methyl-pyrrole-2-carboxamide]
- EC50 (HBV [1]): 160 nM
- EC50 (HBV [2]): 130 nM
- CC50 at 4 days [3]: > 25 µM

Structure (SMILES): Cn1cc(S(=O)(=O)NC(C)(C)C(F)(F)F)c(Cl)c1C(=O)Nc1ccc(F)c(C#N)c1 [Compound 270, 3-Chloro-N-(3-cyano-4-fluorophenyl)-1-methyl-4-[(2,2,2-trifluoro-1,1-dimethylethyl)sulfamoyl]-1H-pyrrole-2-carboxamide]
- EC50 (HBV [1]): 60 nM
- EC50 (HBV [2]): 110 nM
- CC50 at 4 days [3]: > 25 µM

Structure (SMILES): Cn1cc(S(=O)(=O)NC2(C)COC2)cc1C(=O)Nc1cc(F)cc(C(F)(F)F)c1 [Compound 45, N-[3-fluoro-5-(trifluoromethyl)phenyl]-1-methyl-4-[(3-methyloxetan-3-yl)sulfamoyl]pyrrole-2-carboxamide]
- EC50 (HBV [1]): 320 nM
- EC50 (HBV [2]): 340 nM
- CC50 at 4 days [3]: > 25 µM

Structure (SMILES): Cn1cc(S(=O)(=O)N[C@H]2CCOC2)cc1C(=O)Nc1ccc(F)c(C(F)(F)F)c1 [Compound 42, N-[4-fluoro-3-(trifluoromethyl)phenyl]-1-methyl-4-[[(3S)-tetrahydrofuran-3-yl]sulfamoyl]pyrrole-2-carboxamide]
- EC50 (HBV [1]): 540 nM
- EC50 (HBV [2]): 720 nM
- CC50 at 4 days [3]: > 25 µM

Structure (SMILES): Cn1cc(S(=O)(=O)NC2(C(F)(F)F)CCC2)c(Cl)c1C(=O)Nc1ccc(F)c(F)c1 [Compound 267, 3-chloro-N-(3,4-difluorophenyl)-1-methyl-4-{[1-(trifluoromethyl)-cyclobutyl]sulfamoyl}-1H-pyrrole-2-carboxamide]
- EC50 (HBV [1]): 6 nM
- EC50 (HBV [2]): 9 nM
- CC50 at 4 days [3]: > 25 µM

Structure (SMILES): Cc1cc(NC(=O)c2cc(S(=O)(=O)NC3(C)COC3)cn2C)cc(C(F)(F)F)c1 [Compound 82, 1-Methyl-4-[(3-methyloxetan-3-yl)sulfamoyl]-N-[3-methyl-5-(trifluoro-methyl)phenyl]-1H-pyrrole-2-carboxamide]
- EC50 (HBV [1]): 170 nM
- EC50 (HBV [2]): 490 nM
- CC50 at 4 days [3]: > 25 µM

Structure (SMILES): Cn1cc(S(=O)(=O)NC(C)(C)C)cc1C(=O)Nc1ccc(F)c(C#N)c1 [Compound 190, 4-(tert-Butylsulfamoyl)-N-(3-cyano-4-fluorophenyl)-1-methyl-1H-pyrrole-2-carboxamide]
- EC50 (HBV [1]): 90 nM
- EC50 (HBV [2]): 100 nM
- CC50 at 4 days [3]: > 25 µM

Structure (SMILES): Cc1cc(NC(=O)c2cc(S(=O)(=O)NC3(C)COC3)cn2C)ccc1C#N [Compound 83]
- EC50 (HBV [1]): > 1000 nM
- EC50 (HBV [2]): 1350 nM
- CC50 at 4 days [3]: > 25 µM

Structure (SMILES): Cc1c(F)ccc(NC(=O)c2cc(S(=O)(=O)N[C@H](C)C(F)(F)F)cn2C)c1F [Compound 116, N-(2,4-Difluoro-3-methylphenyl)-1-methyl-4-{[(1R)-2,2,2-trifluoro-1-methylethyl]sulfamoyl}-1H-pyrrole-2-carboxamide]
- EC50 (HBV [1]): 30 nM
- EC50 (HBV [2]): 20 nM
- CC50 at 4 days [3]: > 25 µM

Structure (SMILES): C[C@H](NS(=O)(=O)c1cc(C(=O)Nc2ccc(F)c(C#N)c2)n(C)c1)C(F)(F)F [Compound 102, N-(3-Cyano-4-fluorophenyl)-1-methyl-4-{[(1S)-2,2,2-trifluoro-1-methylethyl]sulfamoyl}-1H-pyrrole-2-carboxamide]
- EC50 (HBV [1]): 60 nM
- EC50 (HBV [2]): 60 nM
- CC50 at 4 days [3]: > 25 µM

Structure (SMILES): Cn1cc(S(=O)(=O)NC2(C)COC2)c(F)c1C(=O)Nc1ccc(F)c(C(F)F)c1 [Compound 107, N-[3-(Difluoromethyl)-4-fluorophenyl]-3-fluoro-1-methyl-4-[(3-methyloxetan-3-yl)sulfamoyl]-1H-pyrrole-2-carboxamide]
- EC50 (HBV [1]): 10 nM
- EC50 (HBV [2]): 10 nM
- CC50 at 4 days [3]: > 25 µM

Structure (SMILES): CC(C)NS(=O)(=O)c1cn(C)c(C(=O)Nc2ccc(F)c(Cl)c2)c1F [Compound 235, N-(3-Chloro-4-fluorophenyl)-3-fluoro-1-methyl-4-[(1-methylethyl)sulfamoyl]-1H-pyrrole-2-carboxamide]
- EC50 (HBV [1]): 10 nM
- EC50 (HBV [2]): 10 nM
- CC50 at 4 days [3]: > 25 µM

Structure (SMILES): CC(C)NS(=O)(=O)c1cn(C)c(C(=O)Nc2ccc(F)c(Br)c2)c1F [Compound 230, N-(3-Bromo-4-fluorophenyl)-3-fluoro-1-methyl-4-[(1-methylethyl)sulfamoyl]-1H-pyrrole-2-carboxamide]
- EC50 (HBV [1]): 8 nM
- EC50 (HBV [2]): 30 nM
- CC50 at 4 days [3]: > 25 µM
